According to publication PMC12040169 (PLOS Biology, 2025):

Experiment: in vitro
Conditions: human, hela cells, % viability

| Structure (SMILES) | viability at 28.5 h, 10 µM [%] |
| --- | --- |
| COc1cc(C)ccc1S(=O)(=O)Nc1cc(OC2CCNCC2)c2occc2c1 [CBK074192C] | 98.6 |
| CC(C)(C)c1csc(N2CCSCC2)n1 [CBK021950] | 119 |
| O=C(Nc1cccc(Cl)c1)c1nnc(C(=O)NC2CCCCC2)s1 [CBK294406] | 92.6 |
| CC(=O)N1CCc2nc(NC(=O)c3cccs3)sc2C1 [CBK282680] | 74.9 |
| COC(=O)[C@H]1CN(C(=O)c2cccs2)C[C@@H]1c1ccccc1F [CBK283775] | 87.4 |
| Cc1ccc(C(=O)N2CCCN(C(=O)CN3CCCC3)C2)cc1 [CBK039081] | 87.2 |
| Cc1c(C(=O)NC(C)c2cc3ccccc3o2)cnn1C (stereo not drawn) [CBK283074] | 99.3 |
| COc1ccccc1/C=N/NC(=O)COc1c(Br)cc(Br)cc1Br [CBK261966] | 95.2 |
| Cc1ccc(N(C(=O)COc2ccc(C(C)(C)C)cc2)C2C=CS(=O)(=O)C2)cc1 (stereo not drawn) [CBK265811] | 105 |
| Cc1cc(OCC(=O)Nc2ccccc2CO)cc(C)c1Br [CBK265094] | 88.2 |
| O=c1[nH]c2ccc(S(=O)(=O)Nc3ccc(-c4ccccc4)cc3)cc2[nH]1 [CBK266999] | 99.8 |
| Cc1[nH]c2ccccc2c1Cc1n[nH]c(=S)n1Cc1ccccc1 [CBK266985] | 99.5 |
| Cc1ccc(N2CCN(CC(O)COc3ccc(C(=O)c4ccc(Cl)cc4)cc3)CC2)c(C)c1 (stereo not drawn) [CBK266117] | 110 |
| CN1CCN(CCCNC(=O)C2(c3ccccc3)CCCC2)CC1 [CBK149521] | 106 |
| Cc1cc(C)n(-c2nc3c(c(=O)[nH]c(=O)n3C)n2CCc2ccccc2)n1 [CBK087129] | 90.2 |
| CC(NC(=O)c1ccccc1Br)c1nnc(SCc2ccc([N+](=O)[O-])cc2)n1C (stereo not drawn) [CBK267810] | 103 |
| CCCn1c(SCc2nc(N)nc(Nc3ccccc3CC)n2)n[nH]c1=O [CBK296966] | 86.6 |
| CC(NC(=O)CCc1cccnc1)c1nc(-c2ccncc2)cs1 (stereo not drawn) [CBK306243] | 90.8 |
| CCOc1ccsc1C(=O)Nc1ccccc1N1CCCNCC1 [CBK036354T] | 95.7 |
| CCn1c(SCC(=O)Nc2c(Cl)cc(Cl)cc2Cl)nnc1-c1ccccc1F [CBK268609] | 102 |
| Cc1cc(C(=O)NCCn2nc(C)c(C)c2C)c2cccc(C)c2n1 [CBK281388] | 110 |

| Structure (SMILES) | viability at 28.5 h, 10 µM [%] |
| --- | --- |
| O=C(O)C[C@H](CNC(=O)COc1ccc2ccc(=O)oc2c1)c1ccc(Cl)cc1 [CBK286702] | 113 |
| c1cncc(COc2cncc(OC3CCN(Cc4ccc5c(c4)OCO5)C3)n2)c1 (stereo not drawn) [CBK084458] | 88.9 |
| CCN(Cc1ccccc1)C(=O)NCCCSC [CBK155214] | 94.3 |
| O=C(CCNS(=O)(=O)c1ccccc1)OCc1ccc([N+](=O)[O-])cc1 [CBK296659] | 94.4 |
| CN(c1cccc(C#N)c1)C1CCN(c2nc3c(cnn3C)c(=O)[nH]2)C1 (stereo not drawn) [CBK305462] | 91.8 |
| COc1c(Cl)ccc(Cl)c1C(=O)OCC(=O)O [CBK264596] | 115 |
| Cn1cc(CCN2CCC(C(=O)NC(=O)Nc3ccccc3)CC2)c2ccccc21 [CBK034867] | 83.6 |
| Nc1nc(CN2CCN(c3ccccc3F)CC2)nc(N2CCCc3ccccc32)n1 [CBK270234] | 87.4 |
| CC(C)(C)C1=CC2=NC3(CCC3)C3C[C@](O)(CO)[C@@H](O)[C@@H]3N2O1 (stereo partly drawn) [CBK303262] | 91.1 |
| O=[N+]([O-])c1cnc(NS(=O)(=O)c2ccc(Br)cc2C(F)(F)F)s1 [CBK067541] | 99.6 |
| COc1ccc(OC)c(C(C)NC(=O)C2CCN(CCc3c[nH]c4ccccc34)CC2)c1 (stereo not drawn) [CBK148763] | 99.2 |
| CN(C)c1ccc(-c2nccnc2NCC(O)COc2ccccc2)cc1 (stereo not drawn) [CBK036928] | 103 |
| COc1ccc([C@@H]2CCN(C(=O)Cc3ccccc3F)C[C@H]2O)cc1 [CBK283756] | 100 |
| COc1cc(/C=C(/C#N)c2ccc(C(=O)O)cc2)c([N+](=O)[O-])cc1OCc1ccccc1 [CBK268738] | 92 |
| O=C(O)c1ccc(S(=O)(=O)c2ccc(C(=O)O)c(C(=O)O)c2)cc1C(=O)O [CBK022872] | 93.1 |
| O=C(CCCN1C(=O)/C(=C\c2cccs2)SC1=S)Nc1cc(Cl)ccc1O [CBK263673] | 99.5 |
| O=C(Cn1cnc2sc(-c3ccccc3)cc2c1=O)c1ccc2c(c1)OCO2 [CBK297102] | 87 |
| CCc1cccc(C)c1N(C(=O)Cn1c(=O)[nH]c2ccccc21)C(C)COC (stereo not drawn) [CBK287950] | 80.1 |
| O=C(O)c1ccc(NC(=O)c2ccccc2F)c(NC(=O)c2ccccc2F)c1 [CBK275363] | 101 |
| CC1CCCN(CC(C)(C)NC(=O)c2cc(C(F)(F)F)nn2C)C1 (stereo not drawn) [CBK281598] | 87.9 |
| O=C(NCc1ccccn1)c1ccc(CNS(=O)(=O)c2cccc(Cl)c2)cc1 [CBK267297] | 100 |

| Structure (SMILES) | viability at 28.5 h, 10 µM [%] |
| --- | --- |
| OCc1nc2ccccc2n1CCCCOc1ccccc1Cl [CBK270117] | 106 |
| Cn1ncc2c1CCCN(C(=O)CCc1ccccc1F)C2 [CBK285255] | 96.8 |
| CC(C)(CO)CNc1nc(-c2cccnc2)cnc1N [CBK063475] | 100 |
| Cn1cc(CN2C3CCC(C3)[C@@H]2COc2ccc(F)cc2)cn1 (stereo partly drawn) [CBK282257] | 106 |
| CCOC(=O)c1cccc(-n2cc(-c3ccc(Br)cc3F)nn2)c1 [CBK113153] | 92.3 |
| O=C(c1cnn(-c2cccc(Cl)c2)c1)N1CCOCC1CC(F)F (stereo not drawn) [CBK304207] | 95.5 |
| O=C1CN(C(=O)Cn2c(-c3cccs3)cc3cccnc32)CCN1 [CBK282543] | 100 |
| CSc1nc(C(=O)N2CCCCC2c2cccc(F)c2)cs1 (stereo not drawn) [CBK306732] | 108 |
| Fc1ccc(-c2cc(C(F)(F)F)nc(NCC3CCCO3)n2)cc1 (stereo not drawn) [CBK269492] | 89.1 |
| Cc1noc(C)c1C(=O)N1CCC[C@H](C(=O)c2ccc(F)cc2)C1 [CBK284334] | 81.7 |
| O=C(Cc1csc(-c2ccc(Cl)cc2)n1)N1CCN(c2ccccn2)CC1 [CBK107310] | 97 |
| OCCNc1nc(Cl)nc(Nc2nc(-c3ccccc3)cs2)n1 [CBK261381] | 86.2 |
| COc1ccc(-c2ccnc(N[C@H]3CO[C@H]4[C@@H]3OC[C@@H]4NC(=O)C3CCCCC3)n2)cc1 [CBK289527] | 88.9 |
| O=S(=O)(Nc1nnn[nH]1)c1ccc(-c2ccccc2)cc1 [CBK062381] | 99.7 |
| O=C(Cc1cc(F)c(F)c(F)c1)Nc1ccc2ncccc2c1 [CBK159811] | 93 |
| Cc1cc(NC(=O)CCc2c(C)nc(N3CCOCC3)[nH]c2=O)no1 [CBK305636] | 93.2 |
| CC1CCc2nn(CCNC(=O)Cc3cccs3)c(=O)cc2C1 (stereo not drawn) [CBK284465] | 88.8 |
| O=[N+]([O-])c1cc(F)ccc1Oc1cccc(C(F)(F)F)c1 [CBK002802] | 91.9 |
| CS(=O)(=O)N[C@H]1CCN2C(=O)c3cc(-c4ccc(Cl)cc4)ccc3NC(=O)[C@@H]2C1 [CBK289565] | 95.3 |
| CCC(=O)N1C2CCC1c1cnc3cc(-c4ccco4)nn3c1C2 (stereo not drawn) [CBK284384] | 92.7 |
| CC(NC(=O)Nc1ccccc1O)(C(F)(F)F)C(F)(F)F [CBK268019] | 101 |
